From patent publication US11415579B2, “Assay for measuring a rate of reaction between a target and a ligand candidate” (Imperial College Innovations Ltd., priority 2016, dated 2022)

Key:
[1] = Kinetic thiol consumption assay with model thiol glutathione; assay type: physicochemical; design: Rate constant with glutathione (k(GSH)): unit not given here; details: for Rate constant with glutathione (k(GSH)): 500 μM ligand, 5 μM thiol, phosphate buffer pH 8; for Rate constant with Glutathione: Protein: Glutathione, cysteine position NA, in h-1
Outline: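 Rate constants for acrylamide reaction with 5 μM glutathione come from first-order exponential fits of normalized fluorescence decay (ex 380, em 470 nm). Reactions run in degassed phosphate buffer at pH 8 containing TCEP beads, room temperature.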

[2] = molecular target: T1, human cyclin-dependent kinase 2 (Cdk2) (Homo sapiens, UniProt P24941); assay: Kinetic thiol consumption assay with wild type Cdk2 (C177); assay type: binding; design: key to Rate enhancement, Cdk2 WT: k(Cdk2) divided by k(model thiol); Rate constant with Cdk2 (k(Cdk2)): unit not given here; details: for Rate constant with Cdk2 (k(Cdk2)): 500 μM ligand, 5 μM thiol, phosphate buffer pH 8; for Rate enhancement, Cdk2 WT: no additional mutations; for Rate constant with Cdk2 WT: Protein: Cdk2, cysteine position WT, in h^-1; for k(Cdk2)/k(Cdk2_mut) rate enhancement: model thiol Cdk2[C177A, F80C, K278C]; for k(Cdk2)/k(GSH) rate enhancement: model thiol glutathione
T1 construct: poly-histidine; made in house; host or cells: E. coli
Outline: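 Thiol 5 μM (Cdk2 or model thiol), degassed phosphate buffer pH 8, TCEP beads 2% v/v. Plates incubated 1 h RT, ex/em 380/470 nm. First-order decay fit → rate constant; ratio Cdk2/model thiol = rate enhancement.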

Cdk2[C177A, F80C, K278C] = molecular target: T2, Cdk2[C177A, F80C, K278C] (Homo sapiens, UniProt P24941, C177A/F80C/K278C); assay: Kinetic thiol consumption assay with mutant Cdk2 as model thiol; assay type: binding; design: unit not given here; details: 500 μM ligand, 5 μM thiol, phosphate buffer pH 8
T2 construct: poly-histidine; made in house; host or cells: E. coli
Outline: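 First-order rate constants were derived by exponential-decay fitting of DMSO/thiol-normalized fluorescence (380/470 nm) over time at room temperature. Thiol was 5 μM E. coli-expressed His-tagged Cdk2 mutant C177A/F80C/K278C in degassed pH 8 phosphate buffer containing 2% v/v TCEP beads.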

Cdk2(C177A, F80C) = molecular target: T3, Cdk2(C177A, F80C) (Homo sapiens, UniProt P24941, C177A/F80C); assay: Kinetic thiol consumption assay with Cdk2 mutant F80C, incl. kobs versus concentration (Kd, k2); assay type: binding; design: key to Rate enhancement, Cdk2 F80C: Cdk2 rate constant divided by model-thiol rate constant; details: additional mutation C177A; for Rate constant with Cdk2 F80C: Protein: Cdk2, cysteine position F80C, in h^-1
T3 construct: poly-histidine; made in house; host or cells: E. coli
Outline: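 His-tagged Cdk2(C177A/F80C) from E. coli or model thiol, 5 μM in degassed phosphate buffer pH 8 with TCEP beads, reacted with acrylamide ligands; fluorescence (ex/em 380/470 nm) normalized to DMSO control and fitted to first-order decay for kobs. Kd and k2 obtained from hyperbolic fit of kobs versus ligand concentration.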

Cdk2(H71C) (C177A) = molecular target: T4, Cdk2(H71C) (C177A) (Homo sapiens, UniProt P24941, C177A/H71C); assay: Kinetic thiol consumption assay with Cdk2 mutant H71C; assay type: binding; design: key to Rate enhancement, Cdk2 H71C: rate constant with Cdk2 ÷ rate constant with model thiol (fold); details: additional mutation C177A; for Rate constant with Cdk2 H71C: Protein: Cdk2, cysteine position H71C, in h^-1
T4 construct: poly-histidine; made in house; host or cells: E. coli
Outline: (§1)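 Thiol consumption was monitored kinetically using 5 μM Cdk2 (C177A plus one introduced cysteine) in degassed phosphate buffer at pH 8 with TCEP beads. Plates were kept 1 h at room temperature before fluorescence reading, and rate constants came from exponential decay fitting.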

Cdk2(S276C) (C177A) = molecular target: T5, Cdk2(S276C) (C177A) (Homo sapiens, UniProt P24941, C177A/S276C); assay: Kinetic thiol consumption assay with Cdk2 mutant S276C; assay type: binding; design: key to Rate enhancement, Cdk2 S276C: rate constant with Cdk2 ÷ rate constant with model thiol (fold); details: additional mutation C177A; for Rate constant with Cdk2 S276C: Protein: Cdk2, cysteine position S276C, in h^-1
T5 construct: poly-histidine; made in house; host or cells: E. coli
Outline: as §1

Cdk2(N272C) (C177A) = molecular target: T6, Cdk2(N272C) (C177A) (Homo sapiens, UniProt P24941, C177A/N272C); assay: Kinetic thiol consumption assay with Cdk2 mutant N272C; assay type: binding; design: key to Rate enhancement, Cdk2 N272: rate constant with Cdk2 ÷ rate constant with model thiol (fold); details: for Rate enhancement, Cdk2 N272: Cdk2 N272, additional mutation C177A; for Rate constant with Cdk2 N272C: Protein: Cdk2, cysteine position N272C, additional mutation C177A, in h^-1
T6 construct: poly-histidine; made in house; host or cells: E. coli
Outline: as §1

Cdk2(T182C) (C177A) = molecular target: T7, Cdk2(T182C) (C177A) (Homo sapiens, UniProt P24941, C177A/T182C); assay: Kinetic thiol consumption assay with Cdk2 mutant T182C; assay type: binding; design: key to Rate enhancement, Cdk2 T182C: rate constant with Cdk2 ÷ rate constant with model thiol (fold); details: additional mutation C177A; for Rate constant with Cdk2 T182C: Protein: Cdk2, cysteine position T182C, in h^-1
T7 construct: poly-histidine; made in house; host or cells: E. coli
Outline: as §1

Cdk2(R122C) (C177A) = molecular target: T8, Cdk2(R122C) (C177A) (Homo sapiens, UniProt P24941, C177A/R122C); assay: Kinetic thiol consumption assay with Cdk2 mutant R122C; assay type: binding; design: key to Rate enhancement, Cdk2 R122C: rate constant with Cdk2 ÷ rate constant with model thiol (fold); details: additional mutation C177A; for Rate constant with Cdk2 R122C: Protein: Cdk2, cysteine position R122C, in h-1
T8 construct: poly-histidine; made in house; host or cells: E. coli
Outline: as §1

Cdk2(S181C) (C177A) = molecular target: T9, Cdk2(S181C) (C177A) (Homo sapiens, UniProt P24941, C177A/S181C); assay: Kinetic thiol consumption assay with Cdk2 mutant S181C; assay type: binding; design: key to Rate enhancement, Cdk2 S181C: rate constant with Cdk2 ÷ rate constant with model thiol (fold); details: additional mutation C177A; for Rate constant with Cdk2 S181C: Protein: Cdk2, cysteine position S181C, in h^-1
T9 construct: poly-histidine; made in house; host or cells: E. coli
Outline: as §1

Structure (SMILES)	Rate constant with glutathione (k(GSH)) [1]	Rate constant with Glutathione [1]	Rate constant with Cdk2 (k(Cdk2)) [2]	Rate enhancement, Cdk2 WT [2]	Rate constant with Cdk2 WT [2]	k(Cdk2)/k(Cdk2_mut) rate enhancement [2]	k(Cdk2)/k(GSH) rate enhancement [2]	Rate constant with Cdk2[C177A, F80C, K278C] (k(Cdk2_mut)) (Cdk2[C177A, F80C, K278C])	Rate enhancement, Cdk2 F80C (Cdk2(C177A, F80C))	Rate constant with Cdk2 F80C (Cdk2(C177A, F80C))	Rate enhancement, Cdk2 H71C (Cdk2(H71C) (C177A))	Rate constant with Cdk2 H71C (Cdk2(H71C) (C177A))	Rate enhancement, Cdk2 S276C (Cdk2(S276C) (C177A))	Rate constant with Cdk2 S276C (Cdk2(S276C) (C177A))	Rate enhancement, Cdk2 N272 (Cdk2(N272C) (C177A))	Rate constant with Cdk2 N272C (Cdk2(N272C) (C177A))	Rate enhancement, Cdk2 T182C (Cdk2(T182C) (C177A))	Rate constant with Cdk2 T182C (Cdk2(T182C) (C177A))	Rate enhancement, Cdk2 R122C (Cdk2(R122C) (C177A))	Rate enhancement, Cdk2 S181C (Cdk2(S181C) (C177A))	also measured
C=CC(=O)Nc1cccc(Nc2ncnc3cc(OC)c(OC)cc23)c1 [GC248]	0.01495	0.01493	0.01014	0.9116	0.01361	0.65	0.6783	0.0156	0.1205	0.001799	0.6345	0.009473	0.1863	0.002781	1.058	0.01579	34.92	0.5214	0.8326	1.037	Rate constant with Cdk2 R122C (Cdk2(R122C) (C177A)): 0.01243; Rate constant with Cdk2 S181C (Cdk2(S181C) (C177A)): 0.01548
C=CC(=O)N1CCCc2sccc2C1 [CA-034]	0.01354	0.01847	0.02784	1.053	0.01944	2.793	2.056	0.00997	1.278	0.02361	1.75	0.03232	2.718	0.0502	0.7223	0.01334	10.15	0.1874	0.6416	0.5858	Rate constant with Cdk2 R122C (Cdk2(R122C) (C177A)): 0.01185; Rate constant with Cdk2 S181C (Cdk2(S181C) (C177A)): 0.01082
C=CC(=O)Nc1nc2c(s1)CCCCCC2 [CA-170]	0.06955	0.07188	0.2972	4.135	0.2972	0.3231	4.273	0.9197	13.67	0.9829	0.9221	0.06628	0.7229	0.05196	0.4672	0.03358	5.267	0.3786	0.3489	0.4978	Rate constant with Cdk2 R122C (Cdk2(R122C) (C177A)): 0.02508; Rate constant with Cdk2 S181C (Cdk2(S181C) (C177A)): 0.03578
C=CC(=O)NCCNC(=O)C1CCCN1S(=O)(=O)c1ccccc1 (stereo not shown) [CA-224]	0.00508	0.003765	0.00155	0.4112	0.001548	0.4329	0.3045	0.00358	0.1623	0.000611	0.8417	0.003169	0.1717	0.0006465	0.5596	0.002107	1.292	0.004866	0	0	
C=CC(=O)N1CCC2CCC(C1)N2C (stereo not shown) [CA-143]	0.0293	0.02932	0.01115	0.3803	0.01115	2.207	0.3805	0.00505	0.1014	0.002972	0.08025	0.002353	0.6344	0.0186	0.4942	0.01449	2.359	0.06917	0.2049	0.9178	Rate constant with Cdk2 R122C (Cdk2(R122C) (C177A)): 0.006009; Rate constant with Cdk2 S181C (Cdk2(S181C) (C177A)): 0.02691
C=CC(=O)NC1C[C@@H](C(=C)C)CC=C1C (stereo partly shown) [EL-1074]	0.00876	0.01025	0.003	0.5934	0.006082	0.8773	0.3421	0.00342	0.4555	0.004669	0.248	0.002542	0.4274	0.004381	0.6473	0.006635	1.829	0.01875	0.322	0.214	Rate constant with Cdk2 R122C (Cdk2(R122C) (C177A)): 0.0033; Rate constant with Cdk2 S181C (Cdk2(S181C) (C177A)): 0.002194
C=CC(=O)NC1C2CC3CC(C2)CC1C3 (stereo not shown) [CA-055]	0.00243	0.002381	0.0007	0.4066	0.0009681	0.6937	0.2881	0.00101	0		0.4859	0.001157	0.6972	0.00166	4.591	0.01093	0.2621	0.0006241	0.4288	1.073	Rate constant with Cdk2 R122C (Cdk2(R122C) (C177A)): 0.001021; Rate constant with Cdk2 S181C (Cdk2(S181C) (C177A)): 0.002556
